The NIST ThermoML archive (doi:10.1021/je700260f)

Details: 283.14 K, Liquid, Vibrating tube method

FC(C(F)(F)F)C(F)(F)F [1,1,1,2,3,3,3-heptafluoropropane]
Details | mass density [kg/m3]
13521 kPa | 1512.6
13550 kPa | 1512.5
13594 kPa | 1512.8
13629 kPa | 1513
13672 kPa | 1513.2
13707 kPa | 1513.2
13754 kPa | 1513.5
13783 kPa | 1513.6
13814 kPa | 1513.7
13848 kPa | 1513.7
13878 kPa | 1513.9
13913 kPa | 1514.1
13943 kPa | 1514.1
13983 kPa | 1514.3
14013 kPa | 1514.5
14057 kPa | 1514.7
14086 kPa | 1514.9
14121 kPa | 1514.9
14157 kPa | 1515.1
14187 kPa | 1515.1
14217 kPa | 1515.2
14261 kPa | 1515.5
14304 kPa | 1515.6
14343 kPa | 1515.8
14377 kPa | 1515.8
14406 kPa | 1516.1
14435 kPa | 1516.1
14464 kPa | 1516.2
14504 kPa | 1516.4
14534 kPa | 1516.3
14580 kPa | 1516.6
15750 kPa | 1521.1
15778 kPa | 1521.3
15811 kPa | 1521.3
15838 kPa | 1521.3
15867 kPa | 1521.5
15896 kPa | 1521.5
15929 kPa | 1521.8
15966 kPa | 1521.9
15994 kPa | 1521.8
16031 kPa | 1522
16054 kPa | 1522.2
16198 kPa | 1522.7
16235 kPa | 1522.8
16269 kPa | 1522.9
16306 kPa | 1523.1
16339 kPa | 1523.3
16372 kPa | 1523.4
16405 kPa | 1523.5
16433 kPa | 1523.7
16471 kPa | 1523.7
16499 kPa | 1523.9
16541 kPa | 1523.9
16574 kPa | 1524.1
16649 kPa | 1524.3
16739 kPa | 1524.6
16776 kPa | 1524.8
16803 kPa | 1525
16836 kPa | 1525
16864 kPa | 1525.1
16892 kPa | 1525.2
16935 kPa | 1525.3
16967 kPa | 1525.6
17015 kPa | 1525.7
17055 kPa | 1525.8
17079 kPa | 1525.9
17116 kPa | 1526
17145 kPa | 1526.1
17173 kPa | 1526.2
17206 kPa | 1526.4
17248 kPa | 1526.5
17271 kPa | 1526.5
17304 kPa | 1526.7
17332 kPa | 1526.8
17370 kPa | 1527
17413 kPa | 1527.2
17622 kPa | 1527.9
17656 kPa | 1528.1
17691 kPa | 1528.1
17729 kPa | 1528.3
17758 kPa | 1528.4
17786 kPa | 1528.5
17820 kPa | 1528.6
17850 kPa | 1528.6
17893 kPa | 1528.8
17922 kPa | 1529
17961 kPa | 1529
18006 kPa | 1529.3
18060 kPa | 1529.4
18090 kPa | 1529.5
18129 kPa | 1529.6
18164 kPa | 1529.7
18194 kPa | 1529.9
18233 kPa | 1530
18274 kPa | 1530
18312 kPa | 1530.2
18389 kPa | 1530.5
18616 kPa | 1531.3
18645 kPa | 1531.6
18675 kPa | 1531.4
18719 kPa | 1531.7
18754 kPa | 1531.8
18793 kPa | 1531.9
18821 kPa | 1532
18862 kPa | 1532.3
18911 kPa | 1532.4
18933 kPa | 1532.4
18973 kPa | 1532.7
19007 kPa | 1532.6
19042 kPa | 1532.7
19087 kPa | 1533
19118 kPa | 1533.1
19150 kPa | 1533.1
19177 kPa | 1533.3
19213 kPa | 1533.4
19240 kPa | 1533.5
19277 kPa | 1533.6
19309 kPa | 1533.7
19337 kPa | 1533.9
19373 kPa | 1534
19406 kPa | 1534.1
20075 kPa | 1536.4
20104 kPa | 1536.4
20142 kPa | 1536.6
20175 kPa | 1536.7
20372 kPa | 1537.3
20424 kPa | 1537.4
20453 kPa | 1537.6
22509 kPa | 1544.4
22609 kPa | 1544.6
22639 kPa | 1544.7
22675 kPa | 1545
22904 kPa | 1545.6
22939 kPa | 1545.7
23014 kPa | 1546
23096 kPa | 1546.2
23454 kPa | 1547.3
23496 kPa | 1547.4
23531 kPa | 1547.5
23562 kPa | 1547.6
23603 kPa | 1547.8
23638 kPa | 1548
23709 kPa | 1548.1
23828 kPa | 1548.6
23869 kPa | 1548.8
23896 kPa | 1548.7
23944 kPa | 1548.9
23985 kPa | 1548.9
24017 kPa | 1549.2
24350 kPa | 1550.1
24387 kPa | 1550.2
24422 kPa | 1550.4
24459 kPa | 1550.4
24490 kPa | 1550.5
24532 kPa | 1550.8
24572 kPa | 1550.8
25104 kPa | 1552.3
25136 kPa | 1552.5
25173 kPa | 1552.8
25209 kPa | 1552.7
25250 kPa | 1553
25282 kPa | 1552.9
25327 kPa | 1553.2
25365 kPa | 1553.4
25402 kPa | 1553.3
25434 kPa | 1553.5
25476 kPa | 1553.6
25550 kPa | 1553.9
25673 kPa | 1554.3
25766 kPa | 1554.5
25800 kPa | 1554.6
25832 kPa | 1554.7
25913 kPa | 1554.9
26847 kPa | 1557.6
27304 kPa | 1559.1
27346 kPa | 1559.3
27389 kPa | 1559.3
27418 kPa | 1559.4
27466 kPa | 1559.4
27495 kPa | 1559.6
27777 kPa | 1560.4
28197 kPa | 1561.7
28230 kPa | 1561.8
28264 kPa | 1561.8
28306 kPa | 1562.1
28335 kPa | 1562.1
28371 kPa | 1562
28399 kPa | 1562.2
28437 kPa | 1562.3
28909 kPa | 1563.6
28942 kPa | 1563.9
28978 kPa | 1564
29016 kPa | 1564.1
29044 kPa | 1564.1
29121 kPa | 1564.3
29155 kPa | 1564.3
29185 kPa | 1564.4
29223 kPa | 1564.5
29257 kPa | 1564.7
29291 kPa | 1564.7
29319 kPa | 1564.9
29391 kPa | 1565
29500 kPa | 1565.3
29534 kPa | 1565.4
30122 kPa | 1567.2
